Test results reported in patent US6323340A, “Phthalocyanine compound, method for production thereof, and near infrared absorption dye using the compound” (Nippon Shobukai Co., Ltd., priority 1999, dated 2001).

Legend:
[1] = transmittance to the visible ray of chloroform solution (JIS R3106); assay type: physicochemical; details: 1 cm quartz cell, lowest transmittance at 750 to 1050 nm set to 5 to 6%
Method: In a quartz cell of 1 cm, this phthalocyanine compound was diluted with chloroform until the lowest value of the transmittance at 750 to 1050 nm reached a level in the range of 5 to 6%.

[2] = maximum absorption wavelength and absorptivity coefficient in toluene (spectrophotometer); assay type: physicochemical; details: for Absorptivity Coefficient ε: at maximum absorption wavelength
Method: By the use of a spectrophotometer (Shimadzu Seisakusho Ltd., UV-3100), the phthalocyanine compound obtained in this example [VOPc(2,5-Cl2 PhO)8 (2,6-Br2 -4-CH3 PhO)4 {Ph(CH3)CHNH}3 F] was tested for the maximum absorption wavelength and the absorptivity coefficient in toluene.

[3] = solubility in toluene and methylethyl ketone at room temperature; details: 25° C.
Method: At a room temperature (25° C.), the phthalocyanine compound was gradually dissolved in each the solutions of toluene and methylethyl ketone (MEK) (each 10 ml in volume). The solutions in the process of dissolving the compound were visually examined to find the finally dissolved amounts of the compound, i.e. the concentrations (solubility) of the phthalocyanine compound as a solute in the saturated solutions.

Substance | Transmittance to Visible Ray [1] [%] | Maximum Absorption Wavelength [2] [nm] | Absorptivity Coefficient ε [2] | Solubility MEK ([3]; methylethyl ketone) | Solubility Toluene ([3]; toluene)
CuPc(2,5-Cl2 PhO)8 (2,6-(CH3)2 PhO)4 (PhCH2 NH)4 [Example 8] | 85 | 810 | 154000 |  | 
VOPc(2,5-Cl2 PhO)8 (2,6-(CH3)2 PhO)4 {Ph(CH3)CHNH}3 F [Example 3] | 82 | 834 | 84000 |  | 
VOPc(2,5-Cl2 PhO)8 (2,6-(CH3)2 Pho)4 (PhCH2 NH)4 [Example 7] | 83 | 880 | 128200 |  | 
VOPc(2,5-Cl2 PhO)8 (2,6-Br2 -4-CH3 PhO)4 {Ph(CH3)CHNH}3 F [Example 1] | 79 | 835 | 76000 |  | 
VOPc(2,5-Cl2 PhO)8 (2,6-Br2 -4-CH3 PhO)4 {PhCH2 NH}3 F [Example 2] | 81 | 840 | 68000 |  | 
VOPc(2,6-Cl2 PhO)8 (2,6-(CH3)2 PhO)4 {Ph(CH3)CHNH}3 F [Example 4] | 83 | 835 | 92000 |  | 
VOPc(4-CNPhO)8 (2,6-(CH3)2 PhO)4 {Ph(CH3)CHNH}3 F [Example 6] | 81 | 834 | 83000 | .circleincircle. (a solubility of not less than 5% by weight) | .circleincircle. (a solubility of not less than 5% by weight)
VOPc(4-CNPhO)8 (2,6-Br2 -4-CH3 PhO)4 {Ph(CH3)CHNH}3 F [Example 5] | 80 | 836 | 72000 |  | 
VOPc(PhNH)8 (PhS)8 [Control 1, reference compound] | 50 | 950 |  |  | 
VOPc(PhS)8 (2,6-(CH3)2 PhO)4 (PhCH2 NH)4 [Example 9] | 79 | 920 | 130800 |  | 
octafluoro-octakisanilino oxyvanadium phthalocyanine [Control 2, reference compound] | 48 | 860 |  |  | 
